Laboratory results taken from the supplement of paper PMC10307832.

How the values were obtained:
Test in all cases: relative viability (nuclei count vs DMSO), 5 days (fraction); higher = more cells survive
LCLC-103H = system: LCLC-103H
Method in brief: (§1)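 The day after seeding in 1536-well plates, lung cancer cell lines were treated by pin tool with a single drug, or with a fixed anchor-drug dose together with five library-drug doses (not always all listed) in √10 steps. After 5 days, a combined fix-and-stain solution (final 0.05% Triton X-100, 1% formaldehyde, 1 ug/ml Hoechst) was added. Nuclei counted on 4× images gave relative viability as treated counts over vehicle counts, reported as the median of duplicate plates.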

LXF-289 = system: LXF-289
Method in brief: as §1

NCI-H1355 = system: NCI-H1355
Method in brief: as §1

NCI-H1563 = system: NCI-H1563
Method in brief: as §1

NCI-H1651 = system: NCI-H1651
Method in brief: as §1

NCI-H1755 = system: NCI-H1755
Method in brief: as §1

NCI-H1792 = system: NCI-H1792
Method in brief: as §1

NCI-H1915 = system: NCI-H1915
Method in brief: as §1

NCI-H2347 = system: NCI-H2347
Method in brief: as §1

NCI-H3122 = system: NCI-H3122
Method in brief: as §1

NCI-H322M = system: NCI-H322M
Method in brief: as §1

NCI-H441 = system: NCI-H441
Method in brief: as §1

NCI-H460 = system: NCI-H460
Method in brief: as §1

NCI-H520 = system: NCI-H520
Method in brief: as §1

NCI-H596 = system: NCI-H596
Method in brief: as §1

NCI-H661 = system: NCI-H661
Method in brief: as §1

NCI-H727 = system: NCI-H727
Method in brief: as §1

PC-14 = system: PC-14
Method in brief: as §1

RERF-LC-KJ = system: RERF-LC-KJ
Method in brief: as §1

SK-MES-1 = system: SK-MES-1
Method in brief: as §1

`COc1cc2nccc(Oc3ccc(NC(=O)Nc4cc(C)on4)c(Cl)c3)c2cc1OC` [Tivozanib] + C[C@@H](Oc1cc(-c2cnn(C3CCNCC3)c2)cnc1N)c1c(Cl)ccc(F)c1Cl [Crizotinib] (partner 1 µM) was tested, and the relative viability (LCLC-103H; first compound 0.005 µM) was 1.04, the relative viability (LCLC-103H; first compound 0.01581 µM) was 0.952 and the relative viability (LCLC-103H; first compound 0.05 µM) was 1.04. For the same compound, the relative viability (LCLC-103H; first compound 0.1581 µM) was 1.03, the relative viability (LCLC-103H; first compound 0.5 µM) was 1.06 and the relative viability (LXF-289; first compound 0.005 µM) was 0.762. The relative viability (LXF-289; first compound 0.01581 µM) was 0.742, the relative viability (LXF-289; first compound 0.05 µM) was 0.82 and the relative viability (LXF-289; first compound 0.1581 µM) was 0.864. For the same compound, the relative viability (LXF-289; first compound 0.5 µM) was 0.705, the relative viability (NCI-H1355; first compound 0.005 µM) was 1.03 and the relative viability (NCI-H1355; first compound 0.01581 µM) was 1.03. For the same compound, the relative viability (NCI-H1355; first compound 0.05 µM) was 1.08, the relative viability (NCI-H1355; first compound 0.5 µM) was 1.07 and the relative viability (NCI-H1563; first compound 0.005 µM) was 0.811. For the same compound, the relative viability (NCI-H1563; first compound 0.01581 µM) was 0.857, the relative viability (NCI-H1563; first compound 0.05 µM) was 0.81 and the relative viability (NCI-H1563; first compound 0.1581 µM) was 0.858. The relative viability (NCI-H1563; first compound 0.5 µM) was 0.919, the relative viability (NCI-H1651; first compound 0.005 µM) was 0.896 and the relative viability (NCI-H1651; first compound 0.01581 µM) was 0.91. The relative viability (NCI-H1651; first compound 0.05 µM) was 0.796, the relative viability (NCI-H1651; first compound 0.1581 µM) was 0.84 and the relative viability (NCI-H1651; first compound 0.5 µM) was 0.92. The relative viability (NCI-H1755; first compound 0.005 µM) was 0.832, the relative viability (NCI-H1755; first compound 0.01581 µM) was 0.845 and the relative viability (NCI-H1755; first compound 0.05 µM) was 0.937. The relative viability (NCI-H1755; first compound 0.1581 µM) was 0.872, the relative viability (NCI-H1755; first compound 0.5 µM) was 0.775 and the relative viability (NCI-H1792; first compound 0.005 µM) was 0.96. The relative viability (NCI-H1792; first compound 0.01581 µM) was 1.01, the relative viability (NCI-H1792; first compound 0.05 µM) was 1.07 and the relative viability (NCI-H1792; first compound 0.1581 µM) was 0.933. It also gave a relative viability (NCI-H1792; first compound 0.5 µM) of 1.07, a relative viability (NCI-H1915; first compound 0.005 µM) of 0.863 and a relative viability (NCI-H1915; first compound 0.01581 µM) of 0.905. It also gave a relative viability (NCI-H1915; first compound 0.05 µM) of 0.972, a relative viability (NCI-H1915; first compound 0.1581 µM) of 0.924 and a relative viability (NCI-H1915; first compound 0.5 µM) of 0.857. For the same compound, the relative viability (NCI-H2347; first compound 0.005 µM) was 0.578, the relative viability (NCI-H2347; first compound 0.01581 µM) was 0.679 and the relative viability (NCI-H2347; first compound 0.05 µM) was 0.673. For the same compound, the relative viability (NCI-H2347; first compound 0.1581 µM) was 0.685, the relative viability (NCI-H2347; first compound 0.5 µM) was 0.605 and the relative viability (NCI-H3122; first compound 0.005 µM) was 0.236. The relative viability (NCI-H3122; first compound 0.01581 µM) was 0.266, the relative viability (NCI-H3122; first compound 0.05 µM) was 0.266 and the relative viability (NCI-H3122; first compound 0.1581 µM) was 0.29. For the same compound, the relative viability (NCI-H3122; first compound 0.5 µM) was 0.32, the relative viability (NCI-H322M; first compound 0.005 µM) was 0.9 and the relative viability (NCI-H322M; first compound 0.01581 µM) was 0.907. The relative viability (NCI-H322M; first compound 0.05 µM) was 1.03, the relative viability (NCI-H322M; first compound 0.1581 µM) was 0.845 and the relative viability (NCI-H322M; first compound 0.5 µM) was 0.8. For the same compound, the relative viability (NCI-H441; first compound 0.005 µM) was 0.688, the relative viability (NCI-H441; first compound 0.01581 µM) was 0.676 and the relative viability (NCI-H441; first compound 0.05 µM) was 0.607. For the same compound, the relative viability (NCI-H441; first compound 0.1581 µM) was 0.72, the relative viability (NCI-H441; first compound 0.5 µM) was 0.666 and the relative viability (NCI-H460; first compound 0.005 µM) was 0.889. It also gave a relative viability (NCI-H460; first compound 0.01581 µM) of 1.09, a relative viability (NCI-H460; first compound 0.05 µM) of 0.96 and a relative viability (NCI-H460; first compound 0.1581 µM) of 0.935. The relative viability (NCI-H460; first compound 0.5 µM) was 0.897, the relative viability (NCI-H520; first compound 0.005 µM) was 0.822 and the relative viability (NCI-H520; first compound 0.01581 µM) was 0.827. It also gave a relative viability (NCI-H520; first compound 0.05 µM) of 0.895, a relative viability (NCI-H520; first compound 0.1581 µM) of 0.713 and a relative viability (NCI-H520; first compound 0.5 µM) of 0.603. The relative viability (NCI-H596; first compound 0.005 µM) was 0.947, the relative viability (NCI-H596; first compound 0.01581 µM) was 0.903 and the relative viability (NCI-H596; first compound 0.05 µM) was 0.961. It also gave a relative viability (NCI-H596; first compound 0.1581 µM) of 0.861, a relative viability (NCI-H596; first compound 0.5 µM) of 0.966 and a relative viability (NCI-H661; first compound 0.005 µM) of 0.961. For the same compound, the relative viability (NCI-H661; first compound 0.01581 µM) was 0.951, the relative viability (NCI-H661; first compound 0.05 µM) was 1.03 and the relative viability (NCI-H661; first compound 0.5 µM) was 0.947. The relative viability (NCI-H727; first compound 0.005 µM) was 0.72, the relative viability (NCI-H727; first compound 0.01581 µM) was 0.843 and the relative viability (NCI-H727; first compound 0.05 µM) was 0.833. It also gave a relative viability (NCI-H727; first compound 0.5 µM) of 0.869, a relative viability (PC-14; first compound 0.005 µM) of 0.796 and a relative viability (PC-14; first compound 0.01581 µM) of 0.879. The relative viability (PC-14; first compound 0.05 µM) was 0.961, the relative viability (PC-14; first compound 0.1581 µM) was 0.879 and the relative viability (PC-14; first compound 0.5 µM) was 0.885. For the same compound, the relative viability (RERF-LC-KJ; first compound 0.005 µM) was 0.771, the relative viability (RERF-LC-KJ; first compound 0.01581 µM) was 0.81 and the relative viability (RERF-LC-KJ; first compound 0.05 µM) was 0.863. For the same compound, the relative viability (RERF-LC-KJ; first compound 0.1581 µM) was 0.85, the relative viability (RERF-LC-KJ; first compound 0.5 µM) was 0.747 and the relative viability (SK-MES-1; first compound 0.005 µM) was 1.02. It also gave a relative viability (SK-MES-1; first compound 0.01581 µM) of 1.03, a relative viability (SK-MES-1; first compound 0.05 µM) of 1 and a relative viability (SK-MES-1; first compound 0.1581 µM) of 0.995. The relative viability (SK-MES-1; first compound 0.5 µM) was 0.87.
